In patent US8846746B2, “Pyrazole compound and pharmaceutical use thereof” (Japan Tobacco Inc., priority 2011, dated 2014):
pIC50: −log10 of the molar value.

Target: human SGLT1 (Homo sapiens (Human), UniProt P13866)
Experiment: SGLT1 inhibitory activity: 14C-AMG uptake into CHO-K1 cell line stably expressing human SGLT1
Format: cell-based
Conditions: 14C-AMG uptake, CHO-K1 cells expressing human SGLT1
Summary of the method: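 CHO-K1 cells stably expressing human SGLT1 were pre-incubated 20 min in Na(−) buffer (pH 7.4). Test compound in Na(+) buffer with BSA was added with ¹⁴C-AMG (8 kBq) plus unlabelled AMG (2 mM in the added solution) for 1 h at 37 °C.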

Sequence of human SGLT1 (P13866 whole entry): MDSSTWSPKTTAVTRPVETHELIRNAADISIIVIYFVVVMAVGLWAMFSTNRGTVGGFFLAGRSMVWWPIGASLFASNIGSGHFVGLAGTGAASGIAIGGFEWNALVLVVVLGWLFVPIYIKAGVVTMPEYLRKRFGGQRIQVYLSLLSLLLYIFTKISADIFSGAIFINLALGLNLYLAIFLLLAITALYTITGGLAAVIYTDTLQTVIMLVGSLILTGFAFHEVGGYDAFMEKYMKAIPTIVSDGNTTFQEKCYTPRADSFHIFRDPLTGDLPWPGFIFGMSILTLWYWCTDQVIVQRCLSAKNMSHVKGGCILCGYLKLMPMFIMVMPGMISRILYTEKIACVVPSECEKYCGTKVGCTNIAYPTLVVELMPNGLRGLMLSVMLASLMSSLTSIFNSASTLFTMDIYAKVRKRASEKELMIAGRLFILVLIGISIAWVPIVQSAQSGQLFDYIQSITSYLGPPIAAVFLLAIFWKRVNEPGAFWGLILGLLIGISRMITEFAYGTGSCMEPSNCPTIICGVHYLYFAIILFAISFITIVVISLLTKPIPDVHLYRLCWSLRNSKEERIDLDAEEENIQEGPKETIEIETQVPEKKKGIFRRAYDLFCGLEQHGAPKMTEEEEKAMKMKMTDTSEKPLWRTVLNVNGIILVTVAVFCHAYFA

Structure (SMILES) | pIC50
CCCc1cc(F)cc(-c2cc(NC(=O)[C@@H]3CNC(=O)C3)nn2-c2ccccc2)c1 [Example 75] | 8.41
O=C1C[C@@H](C(=O)Nc2cc(-c3cccc(C4CC4)c3)n(-c3ccccc3)n2)CN1 [Example 92] | 7.60
CCC(F)(F)c1cccc(-c2cc(NC(=O)[C@H]3CNC(=O)[C@@H]3C)nn2-c2cccc(F)c2)c1 [Example 170] | 8.52
CCCc1cccc(-c2cc(NC(=O)[C@H]3CNC(=O)C3)nn2-c2ccc(C)cc2)c1 [Example 48] | 8.46
Cc1ccccc1-n1nc(NC(=O)[C@H]2CNC(=O)C2)cc1-c1cccc(OCC(F)(F)F)c1 [Example 226] | 8.48
C[C@H]1C(=O)NC[C@@H]1C(=O)Nc1cc(-c2cccc(OC(F)(F)F)c2)n(C2CCOCC2)n1 [Example 188] | 7.64
O=C1C[C@@H](C(=O)Nc2cc(-c3cccc(OC(F)(F)F)c3)n(-c3cccc(Cl)c3)n2)CN1 [Example 106] | 8.17
O=C1CCC(C(=O)Nc2cc(-c3cccc(OC(F)(F)F)c3)n(C3CCOCC3)n2)CN1 (single isomer, unassigned) [Example 189] | 6.70
CCCc1cc(-c2cc(NC(=O)[C@@H]3CNC(=O)C3)nn2-c2ccccc2)ccc1F [Example 51] | 7.10
CC1(C)CCC=C(c2cc(NC(=O)[C@H]3CNC(=O)C3)nn2-c2ccccc2)C1 [Example 78] | 8.11
CCCc1cccc(-c2cc(NC(=O)[C@@H]3CNC(=O)C3)nn2-c2cccc(C)c2)c1 [Example 77] | 8.70
Cc1ccc(-n2nc(NC(=O)[C@H]3CNC(=O)[C@@H]3C)cc2-c2cccc(C(F)(F)F)c2)cc1 [Example 231] | 8.17
CCCc1cccc(-c2cc(NC(=O)[C@H]3CNC(=O)C3)nn2-c2cccc(F)c2)c1 [Example 103] | 8.30
CCCc1cccc(-c2cc(NC(=O)[C@H]3CNC(=O)C3)nn2-c2cccc(C)c2)c1 [Example 76] | 8.77
O=C1CCC(C(=O)Nc2cc(-c3cccc(OC(F)(F)F)c3)n(-c3ccccc3F)n2)CN1 (single isomer, unassigned) [Example 167] | 7.82
CCCc1cccc(-c2cc(NC(=O)C3CNC(=O)C3)nn2CC(C)C)c1 (racemic) [Example 18] | 7.51
Cc1ccc(-n2nc(NC(=O)[C@H]3CNC(=O)C3)cc2-c2cccc(C(F)(F)F)c2)cc1 [Example 230] | 7.92
CCCc1cccc(-c2cc(NC(=O)C3CC(=O)NC3C)nn2-c2ccccc2)c1 (single isomer, unassigned) [Example 20] | 6.82
C[C@H]1C(=O)NC[C@@H]1C(=O)Nc1cc(-c2cccc(OC(F)(F)F)c2)n(-c2ccc(Cl)cc2)n1 [Example 152] | 8.03
CCCc1cccc(-c2cc(NC(=O)[C@@H]3CNC(=O)C3)nn2-c2ccc(F)cc2)c1 [Example 35] | 7.82
Cc1ccc(-c2cc(NC(=O)[C@H]3CNC(=O)C3)nn2-c2ccccc2)cc1 [Example 58] | 5.46
CCCc1cccc(-c2cc(NC(=O)[C@@H]3CNC(=O)C3)nn2-c2cccc(F)c2)c1 [Example 104] | 8.01
O=C1C[C@@H](C(=O)Nc2cc(-c3cccc(OC(F)(F)F)c3)n(-c3ccccc3)n2)CN1 [Example 4, (R)-5-oxopyrrolidine-3-carboxylic acid[1-phenyl-5-(3-trifluoromethoxyphenyl)-1H-pyrazol-3-yl]amide] | 8.07
Cc1ccccc1-n1nc(NC(=O)[C@H]2CNC(=O)C2)cc1-c1cccc(OC(F)(F)F)c1 [Example 156] | 8.57
CCCc1cccc(-c2cc(NC(=O)[C@H]3CNC(=O)C3)nn2-c2ccc(F)cc2)c1 [Example 34] | 8.17
CCCc1cccc(-c2cc(NC(=O)[C@@H]3CNC(=O)N3)nn2-c2ccccc2)c1 [Example 97] | 8.00
CCCc1cccc(-c2cc(NC(=O)[C@H]3CNC(=O)C3)nn2CC(F)(F)F)c1 [Example 66] | 6.68
CCCc1cccc(-c2cc(NC(=O)[C@@H]3CNC(=O)C3)nn2CC2CCCCC2)c1 [Example 112] | 7.08

Same assay, conditions: 14C-AMG uptake, CHO-K1 cells stably expressing human SGLT1

Structure (SMILES) | pIC50
CCCc1cccc(-c2cc(NC(=O)[C@@H]3CNC(=O)C3)nn2-c2cccc(C#CC(C)(C)C)c2)c1 [Example 495] | 7.66
CC(C)Oc1cccc(-n2nc(NC(=O)[C@@H]3CNC(=O)C3)cc2-c2cccc(COCC(F)(F)F)c2)c1F [Example 482] | 7.92
O=C1C[C@H](C(=O)Nc2cc(-c3cccc(COCC(F)(F)F)c3)n(-c3cccc(Cl)c3)n2)CN1 [Example 505] | 7.96
C/C=C/c1cccc(-n2nc(NC(=O)[C@@H]3CNC(=O)C3)cc2-c2cccc(CCC)c2)c1 [Example 494] | 8.04
CCCCc1cccc(-c2cc(NC(=O)[C@H]3CNC(=O)N3)nn2-c2ccccc2)c1 [Example 245, (R)-2-Oxoimidazolidine-4-carboxylic acid[5-(3-butylphenyl)-1-phenyl-1H-pyrazol-3-yl]amide] | 7.72
CCOc1cc(F)cc(-n2nc(NC(=O)[C@@H]3CNC(=O)C3)cc2-c2cccc(OC(F)(F)F)c2)c1 [Example 525] | 7.74
C[C@@H](OCc1cc(F)cc(-c2cc(NC(=O)[C@@H]3CNC(=O)C3)nn2-c2ccccc2)c1)C(F)(F)F [Example 235, (S)-5-oxopyrrolidine-3-carboxylic acid{5-[3-fluoro-5-((R)-2,2,2-trifluoro-1-methylethoxymethyl)phenyl]-1-phenyl-1H-pyrazol-3-yl}amide] | 8.47
O=C1C[C@H](C(=O)Nc2cc(-c3cccc(OC(F)(F)F)c3)n(-c3ccccc3F)n2)CN1 [Example 466] | 7.80
O=C1C[C@H](C(=O)Nc2cc(-c3cccc(COC(C(F)(F)F)C(F)(F)F)c3)n(-c3ccc(Cl)cc3)n2)CN1 [Example 576] | 7.72
C[C@@H](OCc1cc(F)cc(-c2cc(NC(=O)[C@@H]3CNC(=O)C3)nn2-c2cccc(F)c2)c1)C(F)(F)F [Example 521] | 8.29
CCCc1cccc(-c2cc(NC(=O)[C@@H]3CNC(=O)C3)nn2-c2ccc(OCC)cc2)c1 [Example 372] | 7.85
O=C1C[C@H](C(=O)Nc2cc(-c3cc(Cl)cc(COCC(F)(F)F)c3)n(-c3ccccc3F)n2)CN1 [Example 587] | 7.40
CCCc1cccc(-c2cc(NC(=O)[C@H]3CNC(=O)O3)nn2-c2ccccc2)c1 [Example 258] | 7.64
CCCc1cccc(-c2cc(NC(=O)[C@@H]3CNC(=O)C3)nn2-c2ccccc2C(C)C)c1 [Example 359] | 7.41
CCCc1cccc(-c2cc(NC(=O)C3CC[S+]([O-])CC3)nn2-c2ccccc2)c1 (stereo not drawn) [Example 318] | 8.49
CC(OCc1cccc(-c2cc(NC(=O)[C@@H]3CNC(=O)C3)nn2-c2ccccc2)c1)(C(F)(F)F)C(F)(F)F [Example 353] | 7.80

Structure (SMILES) | pIC50
CCCc1cccc(-c2cc(NC(=O)[C@@H]3CNC(=O)C3)nn2-c2cccc(CCC(C)(C)C)c2)c1 [Example 498] | 7.15
CCCc1cccc(-c2cc(NC(=O)[C@@H]3CNC(=O)C3)nn2-c2cccc(COC(C)C)c2)c1 [Example 459] | 8.32
CC(C)(OCc1cc(Cl)cc(-c2cc(NC(=O)[C@H]3CNC(=O)N3)nn2-c2ccccc2)c1)C(F)(F)F [Example 594] | 7.18
C[C@@H]1C(=O)NC[C@H]1C(=O)Nc1cc(-c2cccc(CO[C@H](C)C(F)(F)F)c2)n(-c2ccccc2)n1 [Example 564] | 7.35
CCCc1cccc(-c2cc(NC(=O)[C@@H]3CNC(=O)C3)nn2-c2c(C)cccc2C)c1 [Example 325] | 7.33
CCCc1cccc(-c2cc(NC(=O)[C@@H]3CNC(=O)C3)nn2-c2ccc(C(C)C)cc2)c1 [Example 363] | 7.89
CCC(C)(C)C(=O)c1cccc(-c2cc(NC(=O)[C@@H]3CNC(=O)C3)nn2-c2ccccc2)c1 [Example 470] | 8.15
O=C1C[C@H](C(=O)Nc2cc(-c3cc(F)cc(COCC(F)(F)F)c3)n(-c3ccccc3F)n2)CN1 [Example 519] | 7.89
CCCc1cccc(-c2cc(NC(=O)[C@@H]3CNC(=O)O3)nn2-c2ccccc2)c1 [Example 257] | 7.12
CCCc1cccc(-c2cc(NC(=O)C3CNC(=O)C34CC4)nn2-c2ccccc2)c1 (single isomer, unassigned) [Example 360] | 8.82
CC(C)Oc1cc(F)cc(-n2nc(NC(=O)[C@@H]3CNC(=O)C3)cc2-c2cccc(CO[C@H](C)C(F)(F)F)c2)c1 [Example 535] | 8.55
CCCc1cccc(-c2cc(NC(=O)[C@@H]3CNC(=O)C3)nn2-c2ccc(OCCC(F)(F)F)cc2)c1 [Example 374] | 8.06
COc1cccc(-n2nc(NC(=O)[C@@H]3CNC(=O)C3)cc2-c2cccc(COCC(F)(F)F)c2)c1F [Example 480] | 8.17
CCCc1cccc(-c2cc(NC(=O)[C@@H]3CNC(=O)C3)nn2-c2cccc(OCCCS(C)(=O)=O)c2)c1 [Example 492] | 7.72
CCCc1cccc(-c2cc(NC(=O)[C@@H]3CNC(=O)C3)nn2-c2cccc(C(F)(F)F)c2)c1 [Example 401] | 7.89

Same assay, conditions: CHO-K1, at 0.1 uM

Structure (SMILES) | inhibition at 0.1 µM
CCCN1C(=O)NC[C@H]1C(=O)Nc1cc(-c2cccc(OC(F)(F)F)c2)n(-c2ccccc2)n1 [Example 298] | 38%
C[C@@H](OCc1ccc(F)c(-c2cc(NC(=O)[C@@H]3CNC(=O)C3)nn2-c2ccccc2)c1)C(F)(F)F [Example 427] | 49%
C[C@@H]1C[C@@H](n2nc(NC(=O)[C@H]3CNC(=O)[C@@H]3C)cc2-c2cccc(OC(F)(F)F)c2)C[C@H](C)O1 [Example 220] | 16%
CCN1C(=O)NC[C@H]1C(=O)Nc1cc(-c2cccc(OC(F)(F)F)c2)n(-c2ccccc2)n1 [Example 296] | 48%
CCCc1cccc(-c2cc(NC(=O)[C@@H]3CNC(=O)C3)nn2CCc2ccccc2)c1 [Example 108] | 45%
CCC1C(=O)NCC1C(=O)Nc1cc(-c2cccc(OC(F)(F)F)c2)n(-c2ccccc2)n1 (stereo not drawn) [Example 310] | 42%
O=C1C[C@H](C(=O)Nc2cc(-c3cccc(S(=O)(=O)CCC(F)(F)F)c3)n(-c3ccccc3)n2)CN1 [Example 551] | 42%
